The assay deals with rat TTR gene. Briefly: In vivo editing of TTR in rat liver after LNP delivery (NGS, % editing). Details: species or system rat (Sprague-Dawley). How it is done:
LNPs were prepared using various amine lipids in a 4-component lipid system consisting of an ionizable lipid (e.g., an amine lipid), DSPC, cholesterol and a PEG lipid (e.g., PEG2K-DMG, C13 Ether, C14 Ether). In assays for percent liver editing in rats, Cas9 mRNA and chemically modified sgRNA targeting a rat sequence were formulated in LNPs, at either a 1:1 w/w ratio or a 1:2 w/w sgRNA:Cas9 mRNA ratio.
The lipid components were dissolved in 100% ethanol with the lipid component molar ratios described below. The chemically modified sgRNA and Cas9 mRNA were combined and dissolved in 25 mM citrate, 100 mM NaCl, pH 5.0, resulting in a concentration of total RNA cargo of approximately 0.45 mg/mL. The LNPs were formulated with an N:P ratio of about 6, with the ratio of chemically modified sgRNA:Cas9 mRNA at either a 1:1 or 1:2 w/w ratio as described below.
The LNPs were formed by an impinging jet mixing of the lipid in ethanol with two volumes of RNA solution and one volume of water. First, the lipid in ethanol is mixed through a mixing cross with the two volumes of RNA solution. Then, a fourth stream of water is mixed with the outlet stream of the cross through an inline tee. (See, e.g., WO2016010840, FIG. 2). The LNPs were held for 1 hour at room temperature, and further diluted with water (approximately 1:1 v/v). Diluted LNPs were buffer exchanged into 50 mM Tris, 45 mM NaCl, 5% (w/v) sucrose, pH 7.5 (TSS) and concentrated as needed by methods known in the art. The resulting mixture was then filtered using a 0.2 μm sterile filter. The final LNP was stored at 4° C. or −80° C. until further use.
Sprague-Dawley female rats, ranging from 6-10 weeks of age were used in each study. Animals were weighed and dosed based on individual body weight measured the morning of dosing. LNPs were dosed via the lateral tail vein in a volume of 2 mL per kilogram of animal body weight. The animals were periodically observed for adverse effects for at least 24 hours post dose.
For studies measuring in vivo editing in liver, Sprague-Dawley female rats were dosed at 0.1 mpk or 0.03 mpk, unless otherwise noted. Animals were euthanized at 6 or 7 days by carbon dioxide asphyxiation and a heart clip or by ex sanguination via cardiac puncture under isoflourane anesthesia. Blood was collected into serum separator tubes. Liver tissue was collected. Genomic DNA was isolated from the liver tissue for editing measurement by Next-Generation Sequencing (NGS).
In brief, to quantitatively determine the efficiency of editing at the target location in the genome, genomic DNA was isolated and deep sequencing was utilized to identify the presence of insertions and deletions introduced by gene editing.
PCR primers were designed around the target site (e.g., TTR), and the genomic area of interest was amplified. Additional PCR was performed according to the manufacturer's protocols (Illumina) to add the necessary chemistry for sequencing. The amplicons were sequenced on an Illumina MiSeq instrument. The reads were aligned to the […] after eliminating those having low quality scores. The resulting files containing the reads were mapped to the reference genome (BAM files), where reads that overlapped the target region of interest were selected and the number of wild type reads versus the number of reads which contain an insertion, substitution, or deletion was calculated.
The editing percentage (e.g., the “indel efficiency” or “percent indels” or “% editing” or “% indel”) can be defined as the total number of sequence reads with insertions or deletions over the total number of sequence reads, including wild type.
In vivo editing efficiency for materials delivered with formulations including various amine lipid (or ionizable lipid) compounds in Experiments 1 through 14 as described in Tables 3 and 4 was assessed. Editing was measured using G000534 (SEQ ID NO: 5) which targets the rat TTR gene. […]

Where [1] appears, read: Experiment 9, 0.1 mpk, LNP with PEG2K-DMG.
Setting [2] is: Experiment 5, 0.1 mpk, LNP with PEG2K-DMG.
[3] abbreviates: Experiment 12, 0.04 mpk, LNP with PEG2K-DMG.
Setting [4] is: Experiment 14, 0.03 mpk, LNP with C13 Ether.

On to `CCCCC/C=C\C/C=C\CCCCCCCC(=O)OCC(CCCCCCCCC(=O)OC(CCCCCC)CCCCCC)COC(=O)OCCCN(CC)CC` (stereo not drawn) [Compound 19, 2-((((3-(diethylamino)propoxy)carbonyl)oxy)methyl)-11-oxo-11-(tridecan-7-yloxy)undecyl (9Z,12Z)-octadeca-9,12-dienoate], for which, under setting [1], the Mean % editing was 14.4%.

The compound `CCCCC/C=C\C/C=C\CCCCCCCC(=O)OCC(CCCCCCC(=O)OC(CCCC)CCCC)COC(=O)OCCCN(CC)CC` (stereo not drawn) [Compound 20, 2-((((3-(diethylamino)propoxy)carbonyl)oxy)methyl)-9-(nonan-5-yloxy)-9-oxononyl (9Z,12Z)-octadeca-9,12-dienoate] yielded a Mean % editing under setting [1] of 32.0%.

Turning to `CCCCCCCCOC(CCC(=O)OCC(COC(=O)CCC(OCCCCCCCC)OCCCCCCCC)COC(=O)NCCN(CC)CC)OCCCCCCCC` [Compound 22, 2-((((2-(diethylamino)ethyl)carbamoyl)oxy)methyl)propane-1,3-diyl bis(4,4-bis(octyloxy)butanoate)], the Mean % editing (Experiment 8, 0.1 mpk, LNP with PEG2K-DMG) is listed as 61.3%.

On to `CCCCC/C=C\C/C=C\CCCCCCCCC(COC(=O)CCCCCC(=O)OC(CCCCCCCC)CCCCCCCC)COC(=O)NCCN(CC)CC` (stereo not drawn) [Compound 23, 1-((11Z,14Z)-2-((((2-(diethylamino)ethyl)carbamoyl)oxy)methyl)icosa-11,14-dien-1-yl) 7-(heptadecan-9-yl) heptanedioate], for which the Mean % editing by setting is: (Experiment 6, 0.1 mpk, LNP with PEG2K-DMG) 55.3%; (Experiment 11, 0.1 mpk, LNP with PEG2K-DMG) 54.0%.

For the compound `CCCCC/C=C\C/C=C\CCCCCCCC(=O)OCC(CCCCCCCCC(=O)OC(CCCCCCCC)CCCCCCCCC)COC(=O)CCC(CCCCCCCC)OC(=O)NCCN(C)CC` (stereo not drawn) [Compound 24, 3-methyl-15-(9-(octadecan-9-yloxy)-9-oxononyl)-9-octyl-7,12-dioxo-8,13-dioxa-3,6-diazahexadecan-16-yl (9Z,12Z)-octadeca-9,12-dienoate], the Mean % editing under setting [2] is on record as 3.6%.

`CCCCC/C=C\C/C=C\CCCCCCCC(=O)OCC(CCCCCCCCC(=O)OC(CCCCCCCC)CCCCCCCCC)COC(=O)CCC(CCCCCCCC)OC(=O)NCCN1CCCC1` (stereo not drawn) [Compound 25, 11-(octadecan-9-yloxy)-11-oxo-2-(((4-(((2-(pyrrolidin-1-yl)ethyl)carbamoyl)oxy)dodecanoyl)oxy)methyl)undecyl (9Z,12Z)-octadeca-9,12-dienoate]: the Mean % editing under setting [2] came to 17.0%.

`CCCCC/C=C\C/C=C\CCCCCCCC(=O)OCC(CCCCCCCCC(=O)OC(CCCCCCCC)CCCCCCCCC)COC(=O)CCC(CCCC)OC(=O)NCCN(C)CC` (stereo not drawn) [Compound 26, 9-butyl-3-methyl-15-(9-(octadecan-9-yloxy)-9-oxononyl)-7,12-dioxo-8,13-dioxa-3,6-diazahexadecan-16-yl (9Z,12Z)-octadeca-9,12-dienoate]: the Mean % editing under setting [2] came out at 41.9%.

Turning to `CCCCC/C=C\C/C=C\CCCCCCCC(=O)OCC(CCCCCCCCC(=O)OC(CCCCCCCC)CCCCCCCCC)COC(=O)CCC(CCCC)OC(=O)NCCN1CCCC1` (stereo not drawn) [Compound 27, 11-(octadecan-9-yloxy)-11-oxo-2-(((4-(((2-(pyrrolidin-1-yl)ethyl)carbamoyl)oxy)octanoyl)oxy)methyl)undecyl (9Z,12Z)-octadeca-9,12-dienoate], the Mean % editing under setting [2] was determined as 55.3%.

As for `CCCCCCCCC(CCCCCCCC)OC(=O)CCCC(=O)OCC(COC(=O)CCCC(=O)OC(CCCCCCCC)CCCCCCCC)COC(=O)NCCN1CCCCC1` [Compound 28, di(heptadecan-9-yl) O,O′-(2-((((2-(piperidin-1-yl)ethyl)carbamoyl)oxy)methyl)propane-1,3-diyl) diglutarate], under setting [3], the Mean % editing is 11.0%.

`CCCCCCCCC(CCCCCCCC)OC(=O)CCCC(=O)OCC(COC(=O)CCCC(=O)OC(CCCCCCCC)CCCCCCCC)COC(=O)NCCN1CCCC1` [Compound 29, di(heptadecan-9-yl) O,O′-(2-((((2-(pyrrolidin-1-yl)ethyl)carbamoyl)oxy)methyl)propane-1,3-diyl) diglutarate] showed a Mean % editing under setting [3] of 27.3%.

With `CCCCCCCCC(CCCCCCCC)OC(=O)CCCC(=O)OCC(COC(=O)CCCC(=O)OC(CCCCCCCC)CCCCCCCC)COC(=O)OCCCN(C)CC` [Compound 30, O,O′-(2-((((3-(ethyl(methyl)amino)propoxy)carbonyl)oxy)methyl)propane-1,3-diyl) di(heptadecan-9-yl) diglutarate], under setting [3], the Mean % editing turned out to be 12.6%.

In the case of `CCCCCCCCC(CCCCCCCC)OC(=O)CCCC(=O)OCC(COC(=O)CCCC(=O)OC(CCCCCCCC)CCCCCCCC)COC(=O)OCCCN(C)C` [Compound 31, O,O′-(2-((((3-(dimethylamino)propoxy)carbonyl)oxy)methyl)propane-1,3-diyl) di(heptadecan-9-yl) diglutarate], under setting [3], the Mean % editing is listed as 4.0%.

`CCCCCCCCC(CCCCCCCC)OC(=O)CCCC(=O)OCC(COC(=O)CCCC(=O)OC(CCCCCCCC)CCCCCCCC)COC(=O)OCCCN1CCCCC1` [Compound 32, di(heptadecan-9-yl) O,O′-(2-((((3-(piperidin-1-yl)propoxy)carbonyl)oxy)methyl)propane-1,3-diyl) diglutarate]: the Mean % editing under setting [3] is 1.2%.

`CCCCCCCCC(CCCCCCCC)OC(=O)CCCC(=O)OCC(COC(=O)CCCC(=O)OC(CCCCCCCC)CCCCCCCC)COC(=O)OCCCN1CCCC1` [Compound 33, di(heptadecan-9-yl) O,O′-(2-((((3-(pyrrolidin-1-yl)propoxy)carbonyl)oxy)methyl)propane-1,3-diyl) diglutarate] displayed a Mean % editing under setting [3] of 20.0%. Further, the “Mean % editing in rat liver” value (NGS, dose 0.03 mpk, LNP with G000534 sgRNA and Cas9 mRNA 1:2 w/w, 3% C13 Ether (Compound 53: 3% PEG2K-DMG), N=5 (Compound 33: N=4)) is 12.2%.

Compound `CCCCCCCCC(CCCCCCCC)OC(=O)CCCC(=O)OCC(COC(=O)CCCC(=O)OC(CCCCCCCC)CCCCCCCC)COC(=O)CCCN(C)C` [Compound 34, O,O′-(2-(((4-(dimethylamino)butanoyl)oxy)methyl)propane-1,3-diyl) di(heptadecan-9-yl) diglutarate] gave a Mean % editing under setting [4] of 14.9%.

Compound `CCCCCCCCC(CCCCCCCC)OC(=O)CCCC(=O)OCC(COC(=O)CCCC(=O)OC(CCCCCCCC)CCCCCCCC)OC(=O)NCCN(CC)CC` [Compound 35, O,O′-(2-(((2-(diethylamino)ethyl)carbamoyl)oxy)propane-1,3-diyl) di(heptadecan-9-yl) diglutarate] came in with a Mean % editing under setting [4] of 10.3%.

The compound `CCCCCCCCC(CCCCCCCC)OC(=O)CCCC(=O)OCC(C)(COC(=O)CCCC(=O)OC(CCCCCCCC)CCCCCCCC)COC(=O)NCCN(CC)CC` [Compound 36, O,O′-(2-((((2-(diethylamino)ethyl)carbamoyl)oxy)methyl)-2-methylpropane-1,3-diyl) di(heptadecan-9-yl) diglutarate] had a Mean % editing under setting [3] of 27.4%.

Consider `CCCCCCC(CCCCCC)OC(=O)CCCC(=O)OCC(COC(=O)CCCC(=O)OC(CCCCCC)CCCCCC)COC(=O)NCCN(CC)CC` [Compound 37, O,O′-(2-((((2-(diethylamino)ethyl)carbamoyl)oxy)methyl)propane-1,3-diyl) di(tridecan-7-yl) diglutarate], for which, under setting [3], the Mean % editing was found to be 38.1%.

As to `CCCCCCCCC(CCCCCCCC)C(=O)OCC(COC(=O)NCCN(CC)CC)COC(=O)C(CCCCCCCC)CCCCCCCC` [Compound 40, 2-((((2-(diethylamino)ethyl)carbamoyl)oxy)methyl)propane-1,3-diyl bis(2-octyldecanoate)], under setting [4], the Mean % editing was found to be 1.0%.
